Measured values taken from article PMC9924185, “A validated LC–MS/MS method for clinical pharmacokinetics and presumptive phase II metabolic pathways following oral administration of Andrographis paniculata extract” (Scientific Reports, 2023).
Where two headings read alike, the source gives them in different places.

What was measured:
[1] = Metabolite profiling in urine by LC-QTOF/MS after oral administration of A. paniculata extract; assay type: in vivo; conditions: tentative metabolite in human urine (pooled 0–4 and 4–8 h) after single oral A. paniculata extract
Method: For qualitative determination of untargeted compounds, liquid chromatography-quadrupole time-of-flight mass spectrometry (LC-QTOF/MS) was performed on an Agilent 6540 QTOF/MS (Agilent Technologies, USA) equipped with an Agilent 1260 infinity liquid chromatography system. The stationary phase of the chromatographic separation was performed on a 150 mm × 4.6 mm, 5.0 µm Phenomenex Luna C18 column (Phenomenex, USA) using a mobile phase consisting of 0.1% formic acid in water pH 2.5–2.7 (A) and 100% acetonitrile (B) at a constant flow rate of 0.5 mL/min with a controlled oven temperature at 35 °C, (and 10 µL) of injection volume. The elution gradient was started with 30%B, and was increased to 90%B within 20 min, then maintained at 95%B during 25–30 min followed by a post-run for 5 min.
Mass spectrometric analysis was performed using an ESI negative and positive modes with varying collision energies (10, 20, and 40 V) over a mass range of m/z 100–1200 Da. The MS conditions were as follows: capillary voltage = 3500 V; flow rate of drying gas (N2) = 10.0 L/min, 350 °C; nebulizer pressure = 30 psi, fragmentation voltage = 250 V for negative mode and 100 V for positive mode. All acquisition data were analyzed using MassHunter Software B.07.01 and MassHunter Qualitative Analysis Software B.08.00 (Agilent Technologies, USA). To support the metabolite identification, the MS chromatograms were determined by comparing the fragmentation patterns of metabolites and library searches in Mass Hunter, and Human Metabolome Database (HMDB). For sample preparation, pooled urine samples at 0–4 and 4–8 h were prepared using the same extraction process described in the pharmacokinetic study.

[2] = Cumulative urine excretion after single oral administration of A. paniculata extract; assay type: in vivo, human
Method: (§1) An aliquot of 50 µL of plasma or urine was placed in a 1.5 mL of polypropylene centrifuge micro-tube. Protein was removed from the sample by adding 200 µL of methanol (containing 50.00 ng/mL of IS). The mixture was vortexed for 10 min and was then centrifuged at 12,000 rpm, 4 °C for 10 min. The supernatant was filtered through a […] PVDF membrane (Chrom Tech) and transferred into a glass insert in a vial before LC‑MS/MS analysis.
(§2) The clinical pharmacokinetic study was designed as an open-labeled, with a single oral dosing, and conducted under a fasting condition. Four healthy subjects were recruited according to the following inclusion criteria: 18—55 years old with a body mass index (BMI) of 18–30 kg/m^2. Study participants were identified as healthy based on laboratory testing and physical examinations. The participants received 3 capsules containing A. paniculata extract (calculated as 60 mg of andrographolide/dose) before breakfast with 240 mL of drinking water. Blood samples, in EDTA tubes, were taken after oral administration at 0, 10, 20, 30, 45 min, and 1, 1.5, 2, 4, 6, 8, 10, 12, 24 h post dose. All blood samples were then centrifuged at 4000 ± 100 rpm, 4 °C for 5 min. Plasma was pipetted and stored in cryotubes at − 80 °C until further analysis. Urine samples were collected during 0–4, 4–8, 8–12, 12–24, 24–32, 32–40 and 40–48 h after dosing and were then kept at − 80 °C before sample extraction.
(§3) Finally, the hydrolysis of glucuronide metabolites in the pharmacokinetic study was performed according to the following process: 50 µL of plasma or urine sample was incubated for 30 min with 50 µL of 1000 U/mL β-glucuronidase in phosphate buffer pH 6.8 (composed of 0.1 M sodium phosphate monobasic and 0.1 M sodium phosphate dibasic) at 37 °C. For the hydrolysis of sulfatase, 50 µL of 100 units/mL of sulfatase in an acetate buffer at pH 5.0 (composed of 0.1 M acetic acid and 0.1 M sodium acetate) was added into 50 µL of sample; the mixture was then incubated at 37 °C for 2 h. The reaction was stopped in all hydrolysis samples with 150 µL of cold methanol, and then protein precipitation was performed prior to LC–MS/MS analysis. However, due to unavailable standard of the conjugated forms (AP-glucuronide and […]). The quantitative analysis of conjugated metabolites was determined after the hydrolysis reaction by enzymatic digestion, and the free form was analyzed without hydrolysis. The conjugated standards of AP-glucuronide or AP-sulfate should be synthesized for determining the exact amount of the glucuronide or sulfate.

[3] = plasma
Method: (§4) The stability of plasma and urine samples were evaluated at three different QC concentration levels (LQC, MQC and HQC, n = 3 for each level); the conditions were freeze–thaw stability, long-term stability, short-term stability, and post preparative stability in an autosampler. The evaluation of stability under freeze–thaw condition was carried out over five cycles of − 80 °C for at least 12 h of each cycle. Long-term stability was analyzed after storing the samples at − 80 °C. Short-term stability of each analyte, for up to 8 h during processing on the bench at room temperature, was also evaluated. For evaluation of post-preparative stability, the extracted samples were stored at ambient temperature (4 °C) in an autosampler for 24 h. The analyte was considered as a stable sample when the average percentage of accuracy of the QC sample was in the range of 85–115% and the %CV was not over 15%.

[4] = Stability in urine under different storage conditions; assay type: physicochemical, human
Method: as §4

[5] = Clinical pharmacokinetics in plasma after single oral administration of A. paniculata extract; assay type: in vivo, human; conditions: for Cmax / AUC(0-t) / Vd/F / Tmax / half-life: human, parent compound in plasma, single oral dose of extract (60 mg andrographolide); for Cmax: healthy subjects n = 4; for Cmax / AUC(0-t) / Vd/F: mean ± SD; for AUC(0-t) / Vd/F / Tmax / half-life: n = 4; for Tmax / half-life: median; for AUC of both conjugated metabolites compared to the respective parent compounds: plasma, single oral dose of extract
Method: as §1, §2
Pharmacokinetic parameters were determined by non-compartmental analysis using PK solutions software, version 2.0 (Summit Research Services). The maximum concentration of four targeted compounds (Cmax) and the time to reach maximum concentration (Tmax) were taken directly from the individual plasma concentration versus time profiles. The area under the curve from time zero to the last sampling time (AUC0-t) was estimated using the linear trapezoidal rule. The apparent volume of distribution (Vd/F) and the elimination half-life (t1/2) were determined using non-compartmental analysis.
as §3

[6] = Freeze–thaw stability 5 cycles, 2.50 ng/mL (LQC)
[7] = Freeze–thaw stability 5 cycles, 500.00 ng/mL (MQC)
[8] = Freeze–thaw stability 5 cycles, 900.00 ng/mL (HQC)
[9] = Long term stability 3 months at − 80 °C, 2.50 ng/mL (LQC)
[10] = Long term stability 3 months at − 80 °C, 500.00 ng/mL (MQC)
[11] = Long term stability 3 months at − 80 °C, 900.00 ng/mL (HQC)
[12] = Post preparative stability 24 h at autosampler, 2.50 ng/mL (LQC)
[13] = Post preparative stability 24 h at autosampler, 500.00 ng/mL (MQC)
[14] = Post preparative stability 24 h at autosampler, 900.00 ng/mL (HQC)
[15] = Short term stability 8 h at room temperature, 2.50 ng/mL (LQC)
[16] = Short term stability 8 h at room temperature, 500.00 ng/mL (MQC)
[17] = Short term stability 8 h at room temperature, 900.00 ng/mL (HQC)

14-Deoxy-11,12-didehydroandrographolide glucuronide [M2]
Metabolic Pathway [1]: Glucuronidation

Andrographolide sulfate [M4]
Metabolic Pathway [1]: Sulfation*

14-Deoxyandrographolide glucuronide [M3]
Metabolic Pathway [1]: Glucuronidation

Andrographolide glucuronide [M1]
Metabolic Pathway [1]: Glucuronidation

C=C1CC[C@@H]2[C@](C)(CO)[C@H](O)CC[C@@]2(C)[C@@H]1CCC1=CCOC1=O [AP6, 14-deoxyandrographolide]
Route of excretion [2]: primarily excreted renally | %Accuracy [3, 6]: 96.87% | Measured concentration [3, 6]: 2.42 ± 0.04 ng/mL | %Accuracy [3, 7]: 94.79% | Measured concentration [3, 7]: 473.93 ± 25.58 ng/mL | %Accuracy [3, 8]: 98.93% | Measured concentration [3, 8]: 890.41 ± 25.49 ng/mL | %Accuracy [3, 9]: 88.89% | Measured concentration [3, 9]: 2.22 ± 0.09 ng/mL | %Accuracy [3, 10]: 92.43% | Measured concentration [3, 10]: 462.16 ± 14.34 ng/mL | %Accuracy [3, 11]: 98.92% | Measured concentration [3, 11]: 890.25 ± 20.07 ng/mL | %Accuracy [3, 12]: 100.85% | Measured concentration [3, 12]: 2.52 ± 0.08 ng/mL | %Accuracy [3, 13]: 96.39% | Measured concentration [3, 13]: 481.96 ± 2.97 ng/mL | %Accuracy [3, 14]: 101.27% | Measured concentration [3, 14]: 911.38 ± 18.09 ng/mL | %Accuracy [3, 15]: 101.65% | Measured concentration [3, 15]: 2.54 ± 0.21 ng/mL | %Accuracy [3, 16]: 90.47% | Measured concentration [3, 16]: 452.37 ± 10.16 ng/mL | %Accuracy [3, 17]: 100.71% | Measured concentration [3, 17]: 906.41 ± 47.83 ng/mL | %Accuracy [4, 6]: 95.48% | Measured concentration [4, 6]: 2.39 ± 0.18 ng/mL | %Accuracy [4, 7]: 94.03% | Measured concentration [4, 7]: 470.16 ± 19.65 ng/mL | %Accuracy [4, 8]: 102.77% | Measured concentration [4, 8]: 924.91 ± 7.49 ng/mL | %Accuracy [4, 9]: 93.89% | Measured concentration [4, 9]: 2.35 ± 0.07 ng/mL | %Accuracy [4, 10]: 90.88% | Measured concentration [4, 10]: 454.38 ± 21.26 ng/mL | %Accuracy [4, 11]: 99.27% | Measured concentration [4, 11]: 893.39 ± 24.76 ng/mL | %Accuracy [4, 12]: 96.20% | Measured concentration [4, 12]: 2.41 ± 0.13 ng/mL | %Accuracy [4, 13]: 93.94% | Measured concentration [4, 13]: 469.68 ± 35.58 ng/mL | %Accuracy [4, 14]: 101.31% | Measured concentration [4, 14]: 911.80 ± 10.76 ng/mL | %Accuracy [4, 15]: 95.56% | Measured concentration [4, 15]: 2.39 ± 0.15 ng/mL | %Accuracy [4, 16]: 91.90% | Measured concentration [4, 16]: 459.52 ± 16.67 ng/mL | %Accuracy [4, 17]: 102.42% | Measured concentration [4, 17]: 921.74 ± 21.18 ng/mL | Cmax [5]: 6.33 ± 1.18 ng/mL | AUC(0-t) [5]: 10.2 ± 2.9 ng·h/mL | Vd/F [5]: 1.93 ± 1.03 L/kg | Tmax [5]: 1.5 h | half-life [5]: 13.8 min | AUC of both conjugated metabolites compared to the respective parent compounds [5]: greater

C=C1CC[C@@H]2[C@](C)(CO)[C@H](O)CC[C@@]2(C)[C@@H]1/C=C/C1=CCOC1=O [AP3, 14-deoxy-11, 12-didehydroandrographolide]
Route of excretion [2]: primarily excreted renally | %Accuracy [3, 6]: 102.35% | Measured concentration [3, 6]: 2.56 ± 0.21 ng/mL | %Accuracy [3, 7]: 93.25% | Measured concentration [3, 7]: 466.24 ± 38.67 ng/mL | %Accuracy [3, 8]: 98.75% | Measured concentration [3, 8]: 888.74 ± 16.64 ng/mL | %Accuracy [3, 9]: 87.13% | Measured concentration [3, 9]: 2.18 ± 0.05 ng/mL | %Accuracy [3, 10]: 94.32% | Measured concentration [3, 10]: 471.59 ± 4.35 ng/mL | %Accuracy [3, 11]: 98.11% | Measured concentration [3, 11]: 883.01 ± 16.08 ng/mL | %Accuracy [3, 12]: 97.41% | Measured concentration [3, 12]: 2.44 ± 0.04 ng/mL | %Accuracy [3, 13]: 94.34% | Measured concentration [3, 13]: 471.70 ± 15.57 ng/mL | %Accuracy [3, 14]: 100.12% | Measured concentration [3, 14]: 901.09 ± 11.50 ng/mL | %Accuracy [3, 15]: 97.61% | Measured concentration [3, 15]: 2.44 ± 0.04 ng/mL | %Accuracy [3, 16]: 94.40% | Measured concentration [3, 16]: 472.00 ± 19.37 ng/mL | %Accuracy [3, 17]: 98.65% | Measured concentration [3, 17]: 887.83 ± 21.04 ng/mL | %Accuracy [4, 6]: 93.92% | Measured concentration [4, 6]: 2.35 ± 0.10 ng/mL | %Accuracy [4, 7]: 91.91% | Measured concentration [4, 7]: 459.54 ± 15.54 ng/mL | %Accuracy [4, 8]: 100.19% | Measured concentration [4, 8]: 901.72 ± 35.81 ng/mL | %Accuracy [4, 9]: 94.28% | Measured concentration [4, 9]: 2.36 ± 0.06 ng/mL | %Accuracy [4, 10]: 90.36% | Measured concentration [4, 10]: 451.82 ± 15.00 ng/mL | %Accuracy [4, 11]: 98.18% | Measured concentration [4, 11]: 883.61 ± 32.83 ng/mL | %Accuracy [4, 12]: 93.61% | Measured concentration [4, 12]: 2.34 ± 0.11 ng/mL | %Accuracy [4, 13]: 90.33% | Measured concentration [4, 13]: 451.66 ± 9.81 ng/mL | %Accuracy [4, 14]: 100.28% | Measured concentration [4, 14]: 902.47 ± 52.60 ng/mL | %Accuracy [4, 15]: 94.35% | Measured concentration [4, 15]: 2.36 ± 0.07 ng/mL | %Accuracy [4, 16]: 90.63% | Measured concentration [4, 16]: 453.16 ± 19.26 ng/mL | %Accuracy [4, 17]: 101.88% | Measured concentration [4, 17]: 916.89 ± 26.49 ng/mL | Cmax [5]: 83.8 ± 22.2 ng/mL | AUC(0-t) [5]: 309 ± 59 ng·h/mL | Vd/F [5]: 0.73 ± 0.1 L/kg | Tmax [5]: 1.5 h | half-life [5]: 82.8 min | AUC of both conjugated metabolites compared to the respective parent compounds [5]: greater
